Test results: US20250270170A1, “2,3-DIMETHOXY-5-METHYL-1,4-BENZOQUINONE ALKYL ALCOHOL DERIVATIVE AND USE THEREOF” (BEIJING ANJIANXI BIO-MEDICAL TECHNOLOGY CO., LTD., priority 2021, published 2025)

Experiments:
[1] = Example 9: body weight of A549 tumor-bearing nude mice; assay type: in vivo
Description: On D1 of the assay, the A549 cells in the logarithmic growth phase were collected, counted and resuspended in PBS, and the cell concentration was adjusted to 8×10^7 cells/mL. The cells were pipetted with a pipette to disperse them evenly, and the cells were put into a 50-mL centrifuge tube, which was placed in an ice box. A 1-mL syringe was used to draw the cell suspension, which was injected subcutaneously into the axilla of the front right limb of a nude mouse. Each animal was inoculated with 100 μL (8×10^6 cells/mouse) to establish an A549 transplanted tumor model in nude mice. After the inoculation, the animal status and tumor growth were regularly observed. On D18, the tumor diameter was measured using an electronic vernier caliper. The data were input into an Excel spreadsheet to calculate the tumor volume. Tumor-bearing mice in good health and with similar tumor volumes (101 to 156 mm^3) were selected and divided into groups using randomized block method. After the start of the assay, the tumor diameter was measured regularly, the tumor volume was calculated, and the animal body weight was also weighed and recorded. [table]

[2] = Example 10: body weight of HT-29 tumor-bearing nude mice; assay type: in vivo; settings: HT-29 model, DDP 5 mg/kg i.p. QW × 3, R01 18 mg/kg i.g. BID × 28
Description: On D1 of the assay, the HT-29 cells in the logarithmic growth phase were collected, counted and resuspended in serum-free McCoy, and the cell concentration was adjusted to 4×10^7 cells/mL. The cells were pipetted with a pipette to disperse them evenly, and the cells were put into a 50-mL centrifuge tube, which was placed in an ice box. A 1-mL syringe was used to draw the cell suspension, which was injected subcutaneously into the axilla of the front right limb of a nude mouse. Each animal was inoculated with 100 μL (4×10^6 cells/mouse) to establish a HT-29 transplanted tumor model in nude mice. After the inoculation, the animal status and tumor growth were regularly observed. On D12, the tumor diameter was measured using an electronic vernier caliper. The data were input into an Excel spreadsheet to calculate the tumor volume. Tumor-bearing mice in good health and with similar tumor volumes (103 to 179 mm^3) were selected and divided into groups using randomized block method. After the start of the assay, the tumor diameter was measured regularly, the tumor volume was calculated, and the animal body weight was also weighed and recorded.

A549 cells = experiment: Flow cytometry for cell cycle detection, A549; assay type: cell-based, human
Description: (1) Cells were inoculated in a 6-well plate. When about 50% of the cells were adherent and fused, the compound of formula (I) at a concentration of 0 μM, 10 μM, 30 μM, and 90 μM were added, respectively. The plate was placed in an incubator at 37° C. with 5% CO2 to continue culturing, and three time points were set, which were 24 h, 48 h and 72 h, respectively.
(2) After reaching the designated time point, the cell culture plate was taken out from the incubator, and placed in a biological safety cabinet. A 4 ml centrifuge tube was taken and marked. The supernatant in each well was pipetted out and added to the corresponding 4 ml centrifuge tube. The cells were gently washed with PBS, and the PBS was added to the corresponding centrifuge tube. An appropriate amount of trypsin was added to each well to digest the cells. When the cells were digested to a moderate degree, the old culture medium from the centrifuge tube was added to the corresponding well. The cells were gently pipetted with apipette to form a single-cell suspension, which was pipetted back into the original centrifuge tube. The tube was immediately centrifuged at 1500 rpm for 5 minutes. Then, the supernatant was discarded and the precipitate was retained.
(3) 2 ml of pre-chilled PBS was added to the centrifuge tube, and centrifuged again at 1500 rpm for 5 minutes. The supernatant was discarded, and the cell debris was removed.
(4) 1 ml of 75% ethanol was added while pipetting the cells, to make the cells appear as single as possible. Then, the cells were fixed at 4° C. overnight or stored at −20° C. for long-term storage (can be stored for 1 week).
(5) The fixed cells were taken out, and centrifuged at 1000 rpm for 5 minutes. The ethanol was discarded, and pre-chilled PBS was added to wash the cells. Then, the cells were centrifuged at 1000 rpm for 5 min to remove the residual ethanol on the cells.
(6) A cell cycle detection kit from Wuhan Promoter Biology Co., Ltd. was used. 100 μl of RNaseA was added, and incubated in a 37° C. water bath for 30 minutes.
(7) 400 μl of PI was added and mixed well, and incubated at 4° C. in dark for 30 minutes.
(8) The cell cycle was detected by upflow cytometry.

[3] = D21, DDP 5/7/7/7 mg/kg i.p. QW×4
[4] = D25, DDP 5/7/7/7 mg/kg i.p. QW×4
[5] = D28, DDP 5/7/7/7 mg/kg i.p. QW×4
[6] = D32, DDP 5/7/7/7 mg/kg i.p. QW×4
[7] = D35, DDP 5/7/7/7 mg/kg i.p. QW×4
[8] = D39, DDP 5/7/7/7 mg/kg i.p. QW×4
[9] = D42, DDP 5/7/7/7 mg/kg i.p. QW×4
[10] = D46, DDP 5/7/7/7 mg/kg i.p. QW×4

N.N.[Cl][Pt][Cl] [DDP, cisplatin]
Mean animal body weight ([1]; D18, DDP 4 mg/kg i.p. QW×4): 18.4 ± 0.4 g
Mean animal body weight ([1]; D18, DDP 5/7/7/7 mg/kg i.p. QW×4): 18.5 ± 0.3 g
Mean animal body weight ([1]; D21, DDP 4 mg/kg i.p. QW×4): 18.3 ± 0.5 g
body weight loss rate ([1]; D21, DDP 4 mg/kg i.p. QW×4): (0.81%)
Mean animal body weight [1, 3]: 18.4 ± 0.3 g
body weight loss rate [1, 3]: (0.61%)
Mean animal body weight ([1]; D25, DDP 4 mg/kg i.p. QW×4): 18.1 ± 0.3 g
body weight loss rate ([1]; D25, DDP 4 mg/kg i.p. QW×4): (1.7%)
Mean animal body weight [1, 4]: 18.5 ± 0.3 g
body weight loss rate [1, 4]: (0.00%)
Mean animal body weight ([1]; D28, DDP 4 mg/kg i.p. QW×4): 18.5 ± 0.3 g
body weight loss rate ([1]; D28, DDP 4 mg/kg i.p. QW×4): (−0.14%)
Mean animal body weight [1, 5]: 18.9 ± 0.3 g
body weight loss rate [1, 5]: (−2.4%)
Mean animal body weight ([1]; D32, DDP 4 mg/kg i.p. QW×4): 18.7 ± 0.3 g
body weight loss rate ([1]; D32, DDP 4 mg/kg i.p. QW×4): (−1.4%)
Mean animal body weight [1, 6]: 18.3 ± 0.4 g
body weight loss rate [1, 6]: (1.3%)
Mean animal body weight ([1]; D35, DDP 4 mg/kg i.p. QW×4): 19.3 ± 0.3 g
body weight loss rate ([1]; D35, DDP 4 mg/kg i.p. QW×4): (−4.9%)
Mean animal body weight [1, 7]: 19.2 ± 0.4 g
body weight loss rate [1, 7]: (−4.0%)
Mean animal body weight ([1]; D39, DDP 4 mg/kg i.p. QW×4): 19.3 ± 0.3 g
body weight loss rate ([1]; D39, DDP 4 mg/kg i.p. QW×4): (−4.6%)
Mean animal body weight [1, 8]: 18.0 ± 0.3 g
body weight loss rate [1, 8]: (2.5%)
Mean animal body weight ([1]; D42, DDP 4 mg/kg i.p. QW×4): 19.8 ± 0.5 g
body weight loss rate ([1]; D42, DDP 4 mg/kg i.p. QW×4): (−7.7%)
Mean animal body weight [1, 9]: 18.8 ± 0.4 g
body weight loss rate [1, 9]: (−1.5%)
Mean animal body weight ([1]; D46, DDP 4 mg/kg i.p. QW×4): 19.5 ± 0.5 g
body weight loss rate ([1]; D46, DDP 4 mg/kg i.p. QW×4): (−5.6%)
Mean animal body weight [1, 10]: 17.1 ± 0.5 g
body weight loss rate [1, 10]: (7.4%)
Mean animal body weight ± SE ([2]; D 12 (grouping)): 17.6 ± 0.3 g
Mean animal body weight ± SE ([2]; D 15): 17.2 ± 0.2 g
body weight loss rate ([2]; D 15): (2.6%)
Mean animal body weight ± SE ([2]; D 19): 16.9 ± 0.3 g
body weight loss rate ([2]; D 19): (3.9%)
Mean animal body weight ± SE ([2]; D 22): 16.3 ± 0.3 g
body weight loss rate ([2]; D 22): (7.4%)
Mean animal body weight ± SE ([2]; D 26): 15.8 ± 0.4 g
body weight loss rate ([2]; D 26): (10%)
Mean animal body weight ± SE ([2]; D 29): 15.3 ± 0.3 g
body weight loss rate ([2]; D 29): (13%)
Mean animal body weight ± SE ([2]; D 33): 14.8 ± 0.4 g
body weight loss rate ([2]; D 33): (16%)
Mean animal body weight ± SE ([2]; D 36): 14.8 ± 0.4 g
body weight loss rate ([2]; D 36): (16%)
Mean animal body weight ± SE ([2]; D 40): 14.9 ± 0.4 g
body weight loss rate ([2]; D 40): (15%)

COC1=C(OC)C(=O)C(CCCCCCCCCCOC(=O)Cc2c(C)n(C(=O)c3ccc(Cl)cc3)c3ccc(OC)cc23)=C(C)C1=O [compound of formula (I)]
proportion of S phase of cells (A549 cells; 10 μM, 24 h): 22.94%
proportion of S phase of cells (A549 cells; 10 μM, 48 h): 24.73%
proportion of S phase of cells (A549 cells; 10 μM, 72 h): 19.77%
proportion of S phase of cells (A549 cells; 30 μM, 24 h): 12.52%
proportion of S phase of cells (A549 cells; 30 μM, 48 h): 15.96%
proportion of S phase of cells (A549 cells; 30 μM, 72 h): 10.63%
proportion of S phase of cells (A549 cells; 90 μM, 24 h): 3.92%
proportion of S phase of cells (A549 cells; 90 μM, 48 h): 4.37%
proportion of S phase of cells (A549 cells; 90 μM, 72 h): 5.42%
